According to patent US9777005B2 (Takeda Pharmaceutical Company Limited, priority 2012, dated 2017):

Target: T1, human M1 receptor (hCHRM1) (Homo sapiens, UniProt P11229)
T1 construct: expressed in transfected cells; host or cells: CHO-K1
T1 sequence (P11229 1-460): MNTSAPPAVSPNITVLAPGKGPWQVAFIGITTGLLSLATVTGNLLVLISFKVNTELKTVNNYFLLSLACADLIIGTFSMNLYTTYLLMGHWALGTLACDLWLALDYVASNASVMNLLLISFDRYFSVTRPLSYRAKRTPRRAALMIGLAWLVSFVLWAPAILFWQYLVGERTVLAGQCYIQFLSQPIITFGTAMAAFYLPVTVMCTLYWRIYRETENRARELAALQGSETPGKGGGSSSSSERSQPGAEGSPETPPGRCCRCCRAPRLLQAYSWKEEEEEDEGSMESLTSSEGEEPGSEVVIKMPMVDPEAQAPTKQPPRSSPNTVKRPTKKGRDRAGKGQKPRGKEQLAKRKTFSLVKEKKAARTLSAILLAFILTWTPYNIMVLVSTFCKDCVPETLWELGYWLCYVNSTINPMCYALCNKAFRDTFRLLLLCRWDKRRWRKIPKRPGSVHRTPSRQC
Assay: Measurement of M1 receptor positive allosteric modulator (M1PAM) activity, calcium fluorescence (FLIPRtetra) in CHO-K1 cells in the presence of acetylcholine at EC20
Format: cell-based
Details: in the presence of acetylcholine at EC20 (final 0.6 nM), CHO-K1 cells expressing hCHRM1; for EC50: inflection point of M1PAM activity, read-out: IP value; for activity (%) at 10 μM: test compound 10 μM
How it was run: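 PAM activity was measured as calcium flux by FLIPRtetra over 1 min after co-addition of compound and EC20 acetylcholine (final 0.6 nM) to Fluo-4-loaded hCHRM1 CHO-K1 cells. The response was scaled between DMSO (0%) and 1 μM acetylcholine (100%), and the inflection point of the concentration curve gives the IP value.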

EC50 [nM]	activity (%) at 10 μM [%]	SMILES
69	101	N#Cc1cccc(F)c1Oc1cccc2c1C(=O)N(Cc1ccc(-n3cccn3)cc1)C2 [Example 66, 3-fluoro-2-((3-oxo-2-(4-(1H-pyrazol-1-yl)benzyl)-2,3-dihydro-1H-isoindol-4-yl)oxy)benzonitrile]
72	109	Cn1cc(-c2ccc(CN3Cc4cccc(Oc5c(F)cccc5C#N)c4C3=O)c(Cl)c2)cn1 [Example 68, 2-((2-(2-chloro-4-(1-methyl-1H-pyrazol-4-yl)benzyl)-3-oxo-2,3-dihydro-1H-isoindol-4-yl)oxy)-3-fluorobenzonitrile]
410	103	Cn1cc(-c2coc(CN3Cc4cccc(Oc5c(F)cccc5C#N)c4C3=O)c2)cn1 [Example 69, 3-fluoro-2-((2-((4-(1-methyl-1H-pyrazol-4-yl)-2-furyl)methyl)-3-oxo-2,3-dihydro-1H-isoindol-4-yl)oxy)benzonitrile]
88	102	Cc1cc(-c2ccc(CN3Cc4cccc(Oc5c(F)cccc5C#N)c4C3=O)cc2)ccn1 [Example 72, 3-fluoro-2-((2-(4-(2-methylpyridin-4-yl)benzyl)-3-oxo-2,3-dihydro-1H-isoindol-4-yl)oxy)benzonitrile]
24	99	Cn1cc(-c2ccc(CN3Cc4cccc(Oc5c(F)cc(F)cc5C#N)c4C3=O)cc2)cn1 [Example 73]
10	104	Cc1nn(C)cc1-c1ccc(CN2Cc3ccnc(OCC4CCCO4)c3C2=O)cc1 (centres unmarked) [Example 78, 2-(4-(1,3-dimethyl-1H-pyrazol-4-yl)benzyl)-4-((tetrahydrofuran-2-yl)methoxy)-1,2-dihydro-3H-pyrrolo[3,4-c]pyridin-3-one]
29	114	Cn1ccc(-c2ccc(CN3Cc4ccnc(OCC5CCCO5)c4C3=O)cc2)n1 (centres unmarked) [Example 79, 2-(4-(1-methyl-1H-pyrazol-3-yl)benzyl)-4-((tetrahydrofuran-2-yl)methoxy)-1,2-dihydro-3H-pyrrolo[3,4-c]pyridin-3-one]
5.6	100	Cc1cc(-c2ccc(CN3Cc4ccnc(OCC5CCCO5)c4C3=O)cc2)ccn1 (centres unmarked) [Example 80]
170	57	O=C1c2c(cccc2Oc2c(F)cccc2Cl)CN1Cc1ccc(-c2ccnnc2)cc1 [Example 81, 7-(2-chloro-6-fluorophenoxy)-2-(4-(pyridazin-4-yl)benzyl)isoindolin-1-one]
17	104	O=C1c2c(ccnc2OCC2CCCO2)CN1Cc1ccc(-n2cccn2)cc1F (centres unmarked) [Example 86, 2-(2-fluoro-4-(1H-pyrazol-1-yl)benzyl)-4-((tetrahydrofuran-2-yl)methoxy)-1,2-dihydro-3H-pyrrolo[3,4-c]pyridin-3-one]
51	104	Cc1nn(C)cc1-c1ccc(CN2Cc3ccnc(OCCn4cccn4)c3C2=O)cc1 [Example 225, 2-(4-(1,3-dimethyl-1H-pyrazol-4-yl)benzyl)-4-(2-(1H-pyrazol-1-yl)ethoxy)-1,2-dihydro-3H-pyrrolo[3,4-c]pyridin-3-one]
6.1	117	Cc1nn(C)cc1-c1ccc(CN2Cc3ccnc(OCC4CCCO4)c3C2=O)c(F)c1 (centres unmarked) [Example 229, 2-(4-(1,3-dimethyl-1H-pyrazol-4-yl)-2-fluorobenzyl)-4-((tetrahydrofuran-2-yl)methoxy)-1,2-dihydro-3H-pyrrolo[3,4-c]pyridin-3-one]
10	113	Cn1ccc(-c2ccc(CN3Cc4ccnc(OCC5CCCO5)c4C3=O)c(F)c2)n1 (centres unmarked) [Example 230, 2-(2-fluoro-4-(1-methyl-1H-pyrazol-3-yl)benzyl)-4-((tetrahydrofuran-2-yl)methoxy)-1,2-dihydro-3H-pyrrolo[3,4-c]pyridin-3-one]
24	106	Cn1cc(-c2ccc(CN3Cc4ccnc(Oc5c(F)cccc5Cl)c4C3=O)cc2)nn1 [Example 231, 4-(2-chloro-6-fluorophenoxy)-2-(4-(1-methyl-1H-1,2,3-triazol-4-yl)benzyl)-1,2-dihydro-3H-pyrrolo[3,4-c]pyridin-3-one]
38	91	O=C1c2c(ccnc2OCC2CCCO2)CN1Cc1ccc(-n2cc(F)cn2)cc1 (centres unmarked) [Example 234, 2-(4-(4-fluoro-1H-pyrazol-1-yl)benzyl)-4-((tetrahydrofuran-2-yl)methoxy)-1,2-dihydro-3H-pyrrolo[3,4-c]pyridin-3-one]
7.5	117	Cc1nn(C)cc1-c1ccc(CN2Cc3cccc(O[C@@H]4COCC[C@H]4O)c3C2=O)cc1 [Example 251, 1,5-anhydro-2-deoxy-4-O-(2-(4-(1,3-dimethyl-1H-pyrazol-4-yl)benzyl)-3-oxo-2,3-dihydro-1H-isoindol-4-yl)-threo-pentitol]
7.6	99	Cc1nn(C)cc1-c1ccc(CN2Cc3ccnc(OCC4CCCCO4)c3C2=O)cc1 (centres unmarked) [Example 252, 2-(4-(1,3-dimethyl-1H-pyrazol-4-yl)benzyl)-4-((tetrahydro-2H-pyran-2-yl)methoxy)-1,2-dihydro-3H-pyrrolo[3,4-c]pyridin-3-one]
22	100	Cn1ccc(-c2ccc(CN3Cc4ccnc(OCC5CCCCO5)c4C3=O)cc2)n1 (centres unmarked) [Example 253, 2-(4-(1-methyl-1H-pyrazol-3-yl)benzyl)-4-((tetrahydro-2H-pyran-2-yl)methoxy)-1,2-dihydro-3H-pyrrolo[3,4-c]pyridin-3-one]
67	110	Cn1cc(-c2ccc(CN3Cc4ccnc(OCCC5CC5)c4C3=O)cc2)nn1 [Example 254, 4-(2-cyclopropylethoxy)-2-(4-(1-methyl-1H-1,2,3-triazol-4-yl)benzyl)-1,2-dihydro-3H-pyrrolo[3,4-c]pyridin-3-one]
45	109	Cn1cc(-c2ccc(CN3Cc4ccnc(OCCC5CC5)c4C3=O)c(F)c2)nn1 [Example 260, 4-(2-cyclopropylethoxy)-2-(2-fluoro-4-(1-methyl-1H-1,2,3-triazol-4-yl)benzyl)-1,2-dihydro-3H-pyrrolo[3,4-c]pyridin-3-one]
54	107	Cc1nn(C)cc1-c1ccc(CN2Cc3ccnc(OCC4CCOCC4)c3C2=O)c(F)c1 [Example 262, 2-(4-(1,3-dimethyl-1H-pyrazol-4-yl)-2-fluorobenzyl)-4-((tetrahydro-2H-pyran-4-yl)methoxy)-1,2-dihydro-3H-pyrrolo[3,4-c]pyridin-3-one]
41	106	Cn1cc(-c2ccc(CN3Cc4ccnc(OCC5CCC5)c4C3=O)c(F)c2)nn1 [Example 263, 4-(cyclobutylmethoxy)-2-(2-fluoro-4-(1-methyl-1H-1,2,3-triazol-4-yl)benzyl)-1,2-dihydro-3H-pyrrolo[3,4-c]pyridin-3-one]
140	92	Cc1cc(-c2cnc(CN3Cc4cccc(Oc5c(F)cccc5F)c4C3=O)c(F)c2)ccn1 [Example 264, 7-(2,6-difluorophenoxy)-2-((5-fluoro-2′-methyl-3,4′-bipyridin-6-yl)methyl)isoindolin-1-one]
24	96	Cc1nn(C)cc1-c1ccc(CN2Cc3ccnc(OCC4CCOC4)c3C2=O)cc1 (centres unmarked) [Example 265, 2-(4-(1,3-dimethyl-1H-pyrazol-4-yl)benzyl)-4-((tetrahydrofuran-3-yl)methoxy)-1,2-dihydro-3H-pyrrolo[3,4-c]pyridin-3-one]
45	100	Cc1cc(-c2ccc(CN3Cc4ccnc(OCC5CCOC5)c4C3=O)cc2)ccn1.Cl (centres unmarked) [Example 266, 2-(4-(2-methylpyridin-4-yl)benzyl)-4-((tetrahydrofuran-3-yl)methoxy)-1,2-dihydro-3H-pyrrolo[3,4-c]pyridin-3-one hydrochloride]
6.5	107	Cn1ccc(-c2ccc(CN3Cc4cccc(O[C@@H]5CCOC[C@H]5O)c4C3=O)cc2)n1 [Example 272, 1,5-anhydro-2-deoxy-3-O-(2-(4-(1-methyl-1H-pyrazol-3-yl)benzyl)-3-oxo-2,3-dihydro-1H-isoindol-4-yl)-threo-pentitol]
8.5	103	Cn1ccc(-c2ccc(CN3Cc4cccc(O[C@@H]5COCC[C@H]5O)c4C3=O)cc2)n1 [Example 273, 1,5-anhydro-2-deoxy-4-O-(2-(4-(1-methyl-1H-pyrazol-3-yl)benzyl)-3-oxo-2,3-dihydro-1H-isoindol-4-yl)-threo-pentitol]

SMILES	EC50 [nM]	activity (%) at 10 μM [%]
CCC(O)COc1cccc2c1C(=O)N(Cc1ccc(-c3cnn(C)c3)cc1)C2 (centres unmarked) [Example 261, 7-(2-hydroxybutoxy)-2-(4-(1-methyl-1H-pyrazol-4-yl)benzyl)isoindolin-1-one]	25	98
